The term Kd denotes a measure of binding affinity in units of concentration. Higher therefore signals lower affinity.

Test [1] deals with T1, proMMP9(67-444;ΔFnII) (SEQ ID NO:5) (Homo sapiens, UniProt P14780, DEL216-390).
T1 construct: start methionine (N); made in house; host or cells: E. coli BL21(DE3) RIL
T1 sequence (P14780 with tags, fused parts or gaps DEL216-390): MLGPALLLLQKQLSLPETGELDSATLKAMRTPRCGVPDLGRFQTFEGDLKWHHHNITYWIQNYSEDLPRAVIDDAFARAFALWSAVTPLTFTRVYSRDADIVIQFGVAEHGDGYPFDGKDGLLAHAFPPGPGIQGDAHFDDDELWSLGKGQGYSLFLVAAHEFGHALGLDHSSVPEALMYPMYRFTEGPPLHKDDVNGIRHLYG
Description: ThermoFluor binding assay with proMMP9(67-444;ΔFnII). How it is done:
(§1) The ThermoFluor® (TF) assay is a 384-well plate-based binding assay that measures thermal stability of proteins (Biomol Screen 2001, 6, 429-40; Biochemistry 2005, 44, 5258-66). The experiments were carried out using instruments available from Johnson & Johnson Pharmaceutical Research & Development, LLC. TF dye used in all experiments was […] (1,8-ANS) (Invitrogen: A-47).
(§2) Compounds were arranged in a pre-dispensed plate (Greiner Bio-one: 781280), wherein compounds were serially diluted in 100% DMSO across 11 columns within a series. Columns 12 and 24 were used as DMSO reference and contained no compound. For multiple compound concentration-response experiments, the compound aliquots ([…]) were robotically predispensed directly into black 384-well polypropylene PCR microplates (Abgene: TF-0384/k) using a Cartesian Hummingbird liquid handler (DigiLab, Holliston, Mass.). Following compound dispense, protein and dye solutions were added to achieve the final assay volume of 3 μL. The assay solutions were overlayed with 1 μL of silicone oil (Fluka, type DC 200: 85411) to prevent evaporation.
(§3) Assay plates were robotically loaded onto a thermostatically controlled PCR-type thermal block and then heated from 40 to 90° C. at a ramp-rate of 1° C./min for all experiments. Fluorescence was measured by continuous illumination with UV light (Hamamatsu LC6) supplied via fiber optics and filtered through a band-pass filter (380-400 nm; >60D cutoff). Fluorescence emission of the entire 384-well plate was detected by measuring light intensity using a CCD camera (Sensys, Roper Scientific) filtered to detect 500±25 nm, resulting in simultaneous and independent readings of all 384 wells. A single image with 20-sec exposure time was collected at each temperature, and the sum of the pixel intensity in a given area of the assay plate was recorded vs temperature and fit to standard equations to yield the Tm (J Biomol Screen 2001, 6, 429-40).
(§4) Thermodynamic parameters necessary for fitting compound binding for each proMMP were estimated by differential scanning calorimetry (DSC) and from ThermoFluor® data. The heat capacity of unfolding for each protein was estimated from the molecular weight and from ThermoFluor® dosing data.
ThermoFluor® with proMMP9(67-444;ΔFnII (SEQ ID NO:5)
The protein sample preparations had to include a desalting buffer exchange step via a PD-10 gravity column (GE Healthcare). The desalting buffer exchange was performed prior to diluting the protein to the final assay concentration of 3.5 μM proMMP9(67-444;ΔFnII) (SEQ ID NO:5). The concentration of proMMP9(67-444;ΔFnII) (SEQ ID NO:5) was determined spectrophotometrically based on a calculated extinction coefficient of ε280=33900 M^−1 cm^−1, a calculated molecular weight of 22.6 kDa, and calculated pI of 5.20. ThermoFluor® reference conditions were defined as follows: 80 μg/mL (3.5 μM) proMMP9(67-444;ΔFnII) (SEQ ID NO:5), 50 μM 1,8-ANS, pH 7.0 Buffer (50 mM HEPES pH 7.0, 100 mM NaCl, 0.001% Tween-20, 2.5 mM MgCl2, 300 μM CaCl2). The thermodynamic parameters for proMMP9(67-444;ΔFnII) (SEQ ID NO:5) are as follows: Tm (° C.)=63 (+/−0.1), ΔUH(Tm) (cal mol^−1)=105000(+/−5000), ΔUS(Tm) (cal mol^−1 K^−1)=450, ΔuCp (cal mol^−1 K^−1)=2000.
A general note: DSF heats the sample and reads unfolding from a dye or from intrinsic fluorescence.

Test [2] addresses T2, full-length proMMP9(1-707) (SEQ ID NO:1), activation by catalytic MMP3 (Homo sapiens, UniProt P14780, R574P).
T2 construct: made in house; host or cells: HEK293 (transient, secreted)
Description: ProMMP9/MMP3 DQ Gelatin Activation Assay. The format is biochemical. To be noted: read-out: ProMMP9/MMP3 DQ gel Activation Assay, IC50. The source says: ProMMP9/MMP3 DQ Gelatin Activation Assay

Test [3] concerns the target T3, proMMP9(20-445;ΔFnII) (SEQ ID NO:6) (Homo sapiens, UniProt P14780, DEL216-390).
T3 construct: start methionine (N); made in house; host or cells: E. coli BL21(DE3) RIL
T3 sequence (P14780 with tags, fused parts or gaps DEL216-390): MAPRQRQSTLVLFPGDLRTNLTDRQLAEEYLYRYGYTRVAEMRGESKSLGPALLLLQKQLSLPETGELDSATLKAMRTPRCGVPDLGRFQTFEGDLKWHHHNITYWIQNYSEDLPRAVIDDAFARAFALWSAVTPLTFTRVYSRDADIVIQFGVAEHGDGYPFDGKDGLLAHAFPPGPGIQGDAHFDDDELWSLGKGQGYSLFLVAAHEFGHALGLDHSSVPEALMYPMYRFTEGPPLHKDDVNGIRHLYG
Description: ThermoFluor binding assay with proMMP9(20-445;ΔFnII). The method, then: as §1, §2, §3, §4
ThermoFluor® with proMMP9(20-445;ΔFnII (SEQ ID NO:6)
The protein sample preparations included a desalting buffer exchange step via a PD-10 gravity column (GE Healthcare). The desalting buffer exchange was performed prior to diluting the protein to the final assay concentration of 2.8 μM proMMP9(20-445;ΔFnII) (SEQ ID NO:6). The concentration of proMMP9(20-445;ΔFnII) (SEQ ID NO:6) was determined spectrophotometrically based on a calculated extinction coefficient of ε280=39880 M^−1 cm^−1, a calculated molecular weight of 28.2 kDa, and calculated pI of 5.5. ThermoFluor® reference conditions were define as follows: 80 μg/mL (2.8 μM) proMMP9(20-445;ΔFnII) (SEQ ID NO:6), 50 μM 1,8-ANS, pH 7.0 Buffer (50 mM HEPES pH 7.0, 100 mM NaCl, 0.001% Tween-20, 2.5 mM MgCl2, 300 μM CaCl2). The thermodynamic parameters for proMMP9(20-445;ΔFnII) (SEQ ID NO:6) are as follows: Tm (° C.)=72 (+/−0.1), ΔUH(Tm) (cal mol^−1)=160000(+/−5000), ΔUS(Tm) (cal mol^−1 K^−1)=434, ΔUCp (cal mol^−1 K^−1)=2400.

Test [4] deals with T4, proMMP13(1-268) (SEQ ID NO:7), activation by plasmin (Homo sapiens, UniProt P45452).
T4 construct: 6×-histidine tag (C); made in house; host or cells: HEK293 (transient, secreted)
As to the kind of experiment: ProMMP13/Plasmin P126 Activation Assay. Type of test: biochemical. The method, then:
ProMMP13/Plasmin P126 Activation Assay
On the day of assay, proMMP13(1-268) (SEQ ID NO:7) purified from HEK293 cells and plasmin were diluted to 160 nM and 320 nM, respectively, in assay buffer. The reaction volume was 50 μL. […] The plate was sealed and incubated for 40 min at 37° C. […] Plasmin was not reactive towards P-126 substrate under these conditions.

The target of test [5] is T2, full-length proMMP9(1-707) (SEQ ID NO:1), activation by catalytic MMP3. As to the kind of experiment: proMMP9/MMP3 P126 Activation Assay. The format is biochemical. How it is done: proMMP9/MMP3 P126 Activation Assay
The reaction volume was 50 μL. […] Reactivity of residual MMP3 towards P-126 substrate was minimal under these conditions.

T2 sequence (P14780 20-707 R574P): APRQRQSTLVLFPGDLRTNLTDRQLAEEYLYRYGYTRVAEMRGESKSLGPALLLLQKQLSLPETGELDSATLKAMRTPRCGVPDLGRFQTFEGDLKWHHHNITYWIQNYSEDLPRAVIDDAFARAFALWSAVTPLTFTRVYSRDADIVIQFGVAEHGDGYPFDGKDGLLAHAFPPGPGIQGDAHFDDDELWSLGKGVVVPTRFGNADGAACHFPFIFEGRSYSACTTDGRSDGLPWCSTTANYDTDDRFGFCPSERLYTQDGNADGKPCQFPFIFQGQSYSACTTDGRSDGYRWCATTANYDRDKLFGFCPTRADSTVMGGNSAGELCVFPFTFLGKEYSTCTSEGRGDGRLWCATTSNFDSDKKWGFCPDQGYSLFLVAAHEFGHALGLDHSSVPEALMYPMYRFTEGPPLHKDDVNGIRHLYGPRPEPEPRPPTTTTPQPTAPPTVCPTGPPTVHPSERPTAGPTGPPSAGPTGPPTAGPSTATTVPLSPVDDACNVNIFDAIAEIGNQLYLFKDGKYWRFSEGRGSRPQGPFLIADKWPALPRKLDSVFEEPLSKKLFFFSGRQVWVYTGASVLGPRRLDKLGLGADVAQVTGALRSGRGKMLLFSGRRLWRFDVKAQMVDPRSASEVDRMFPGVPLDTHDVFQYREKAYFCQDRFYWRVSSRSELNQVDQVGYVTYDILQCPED

In the case of `COc1ccc([N+](=O)[O-])cc1Nc1nc(-c2cnc3ccccn23)cs1` [Example 28, (4-Imidazo[1,2-a]pyridin-3-yl-thiazol-2-yl)-(2-methoxy-5-nitro-phenyl)-amine], the Kd in test [1] was more than 28000 nM; in test [3] it was more than 29000 nM. In test [2], the IC50 was determined as 5000 nM.
For the compound `CC(C)Oc1ccc(C(N)=O)cc1Nc1nc(-c2ccc3c(c2)ncn3C)cs1` [Example 8, 4-Isopropoxy-3-[4-(1-methyl-1H-benzoimidazol-5-yl)-thiazol-2-ylamino]-benzamide], the IC50 in test [4] was 900 nM; in test [5] it was 150 nM. Moreover, the Kd in test [1] amounted to 330 nM; in test [3], 30 nM.
